Laboratory results taken from patent US5496844A, “Indole derivatives” (Otsuka Pharmaceutical Factory, Inc., priority 1992, dated 1996).

Target: T1, rat uterus cytoplasm estrogen receptor (Rattus norvegicus, UniProt P06211)
T1 construct: the homogenate was centrifuged to give a cytoplasm fraction; from tissue; host or cells: uterus of female SD rats aged 3 to 4 weeks, cytoplasm fraction
T1 sequence (P06211 1-600): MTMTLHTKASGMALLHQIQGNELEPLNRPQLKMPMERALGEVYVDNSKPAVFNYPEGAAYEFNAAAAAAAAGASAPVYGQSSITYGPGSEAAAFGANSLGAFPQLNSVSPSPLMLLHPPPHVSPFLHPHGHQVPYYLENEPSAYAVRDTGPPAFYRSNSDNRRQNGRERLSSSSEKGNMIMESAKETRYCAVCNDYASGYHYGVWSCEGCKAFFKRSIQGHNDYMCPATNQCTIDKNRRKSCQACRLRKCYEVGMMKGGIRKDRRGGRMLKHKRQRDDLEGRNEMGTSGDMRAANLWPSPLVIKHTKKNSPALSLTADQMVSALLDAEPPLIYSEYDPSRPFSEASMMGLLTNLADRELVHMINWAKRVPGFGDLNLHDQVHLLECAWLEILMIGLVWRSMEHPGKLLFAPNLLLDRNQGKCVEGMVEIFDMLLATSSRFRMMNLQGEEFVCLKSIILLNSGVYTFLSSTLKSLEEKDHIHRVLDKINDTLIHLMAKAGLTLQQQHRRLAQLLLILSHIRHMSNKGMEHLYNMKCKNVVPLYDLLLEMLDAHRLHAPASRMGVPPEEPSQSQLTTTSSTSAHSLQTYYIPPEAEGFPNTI
Assay: inhibition of specific binding of [3H]-moxestrol to rat uterus cytoplasm estrogen receptor
Set-up: species or system rat (female SD)
Conditions: relative to moxestrol as control compound; rat uterus cytoplasm fraction; 4° C., 16 hours; DCC method
Protocol: Test for inhibitory activity against the specific binding of [^3 H]-moxestrol to the rat uterus cytoplasm estrogen receptor
The above activity was measured essentially as described in the literature [J. Biol. Chem., 258 (5), 3173 (1973) and Biochem. Pharmacol., 43 (12), 2511 (1992)].
Thus, the uterus was excised from female SD rats aged 3 to 4 weeks and homogenized in 6 volumes of TETG buffer (10 mM Tris-hydrochloride, 1 mM EDTA, 12 mM thioglycerol and 10% glycerol) and the homogenate was centrifuged to give a cytoplasm fraction. ^3 H-Moxestrol and each test compound were added to this cytoplasm fraction and each mixture was incubated at 4° C. for 16 hours to allow binding to the estrogen receptor in the cytoplasm fraction.
Then, the free form of ^3 H-moxestrol was removed by the DCC method and the bound form of ^3 H-moxestrol was quantitated using a liquid scintillation counter.
Moxestrol was used as a control compound and the relative binding affinity (RBA), which was defined as the ^3 H-moxestrol binding inhibiting effect (IC50) ratio, was determined as follows: [formula]
The thus-obtained RBA values for the respective test compounds are shown below in Table 21.

SMILES | RBA (relative binding affinity, 3H-moxestrol binding inhibiting effect (IC50) ratio) [%]
Cc1c(-c2ccc(Sc3ccccc3)cc2)n(CCCCCCNC(C)C)c2ccc(O)cc12 [Example 161] | 46
CSc1ccc(-c2c(C)c3cc(O)ccc3n2CCCCCCNC2CCCC2)cc1 [Example 172] | 44
CSc1ccc(-c2c(C)c3cc(O)ccc3n2CCCCCCNC2CCC2)cc1 [Example 175, 1-(6-cyclobutylaminohexyl)-5-hydroxy-3-methyl-2-(4-methylthiophenyl)indole] | 60
CSc1ccc(-c2c(C)c3cc(O)ccc3n2CCCCCCNC2CC2)cc1 [Example 176] | 64
CSc1ccc(-c2c(C)c3cc(O)ccc3n2CCCCCCNC(C)(C)C)cc1 [Example 178] | 57
CCC(C)NCCCCCCn1c(-c2ccc(SC)cc2)c(C)c2cc(O)ccc21 (stereo not drawn) [Example 179] | 60
CSc1ccc(-c2c(C)c3cc(O)ccc3n2CCCCCCNCc2ccccc2)cc1 [Example 181] | 52
CCC(C)(C)NCCCCCCn1c(-c2ccc(SC)cc2)c(C)c2cc(O)ccc21 [Example 182] | 57
O=C(c1ccc(OCCN2CCCC2)cc1)n1c(-c2ccc(Sc3ccccc3)cc2)cc2cc(O)ccc21 [Example 234, 5-hydroxy-2-(4-phenylthiophenyl)-1-[4-{2-(1-pyrrolidinyl)ethoxy}benzoyl]indole] | 50
O=C(c1ccc(OCCN2CCCCC2)cc1)n1c(-c2ccc(Sc3ccccc3)cc2)cc2cc(O)ccc21 [Example 236] | 53
O=C(c1ccc(OCCCN2CCCC2)cc1)n1c(-c2ccc(Sc3ccccc3)cc2)cc2cc(O)ccc21 [Example 238] | 49
O=C(c1ccc(OCCCN2CCCCC2)cc1)n1c(-c2ccc(Sc3ccccc3)cc2)cc2cc(O)ccc21 [Example 239] | 73
O=C(c1ccc(OCCn2cncn2)cc1)n1c(-c2ccc(Sc3ccccc3)cc2)cc2cc(O)ccc21 [Example 246] | 57
CSc1ccc(-c2c(C)c3cc(O)ccc3n2CCCCCCCC(=O)N(C)C)cc1 [Example 253] | 94
CSc1ccc(-c2c(C)c3cc(O)ccc3n2CCCCCCCC(=O)NC2CCC2)cc1 [Example 254] | 78
CSc1ccc(-c2c(C)c3cc(O)ccc3n2CCCCCCCC(=O)NC(C)(C)C)cc1 [Example 255] | 41
CSc1ccc(-c2c(C)c3cc(O)ccc3n2CCCCCCCC(=O)N2CCCCC2)cc1 [Example 258] | 41
CSc1ccc(-c2c(C)c3cc(O)ccc3n2CCCCCCCCN2CCOCC2)cc1 [Example 272] | 48
CSc1ccc(-c2c(C)c3cc(O)ccc3n2CCCCCCCCNC(C)C)cc1 [Example 274] | 65
CSc1ccc(-c2c(C)c3cc(O)ccc3n2CCCCCCCCN(C)C)cc1 [Example 279] | 82
CSc1ccc(-c2c(C)c3cc(O)ccc3n2CCCCCCCCNC2CCC2)cc1 [Example 280] | 116
CSc1ccc(-c2c(C)c3cc(O)ccc3n2CCCCCCCCN2CCCC2)cc1 [Example 281, 5-hydroxy-3-methyl-2-(4-methylthiophenyl)-1-[8-(1-pyrrolidinyl)octyl]indole] | 121
CSc1ccc(-c2c(C)c3cc(O)ccc3n2CCCCCCCCNC(C)(C)C)cc1 [Example 282] | 114
CSc1ccc(-c2c(C)c3cc(O)ccc3n2CCCCCCCCN2CCCCC2)cc1 [Example 285] | 93
CCSc1ccc(-c2cc3cc(O)ccc3n2CCCCCCCCNC(C)C)cc1 [Example 286] | 51
CSc1ccc(-c2c(C)c3cc(O)ccc3n2CCCCCCN2CCSC2)cc1 [Example 291] | 70
CSc1ccc(-c2c(C)c3cc(O)ccc3n2CCCCCCNC(C)c2ccccc2)cc1 (stereo not drawn) [Example 312, 5-hydroxy-3-methyl-2-(4-methylthiophenyl)-1-[6-(1-phenylethyl)aminohexyl]indole] | 42
